Measurements as given in patent US6770627B1, “Piperizine-4-phenyl derivatives as inhibitors of the interaction between mdm2 and p 53” (AstraZeneca AB, priority 1998, dated 2004).

Molecular target: T1, p53/MDM2 interaction [MDM2 (1-118) 6 his and GST-p53(1-50)] (Homo sapiens, UniProt Q00987)
T1 construct: The human MDM2 N-terminal fragment encompassing amino acids 1-118; made in house; host or cells: E. coli BL21/DE3 (MDM2-6His); E. coli DH5alpha (GST-p53)
Assay: Measurement of the inhibition of p53/MDM2 interaction (modified ELISA)
Format: binding
Conditions: 75 nM GST-p53 coated, 75 nM MDM2-6His, NTA-AP detection, optical density at 405 nm, compounds tested between 0 and 100 μM
Method: The inhibition of the p53/MDM2 interaction by compounds was measured using a modified ELISA assay using a histidine tagged MDM2 [MDM2 (1-118) 6 his], a p53 GST fusion protein (GST-p53) and a nickel chelate-alkaline phosphatase (NTA-AP).
The human MDM2 N-terminal fragment encompassing amino acids 1-118 and immediately followed by a C-terminal 6-histidine tag sequence and then a stop codon was generated by PCR from a human placental cDNA library. The PCR product was initially cloned into pCR2.1 vector (Invitrogen) following the manufacturer's protocol. DNA sequencing confirmed a MDM fragment sequence identical to that of published MDM2 (EMBL accession no. Z12020). The MDM2-6His fragment was then subcloned into pTB375 E. coli expression vector to produce the expression vector pTB375-MDM2-6His (1-118) clone no. 11. The pTB375 vector is a modified T7 (Studier) Expression vector. Expression grows were performed in E. coli strain BL21/DE3 (obtained from Novagen Inc.) and expression of the recombinant protein was induced by addition of IPTG (isopropyl-β-D-1-thiogalactopyranoside). MDM2 (1-118) 6 his was purified from E. coli lysates using Ni-NTA beads (Qiagen). […]
100 μl of 75 nM GST-p53 was added per well to a 96 well plate (Nunc Maxisorp) and the plate left at 4° C. overnight. […] The optical density of each well was measured at 405 nm. […]

T1 sequence (Q00987 1-118): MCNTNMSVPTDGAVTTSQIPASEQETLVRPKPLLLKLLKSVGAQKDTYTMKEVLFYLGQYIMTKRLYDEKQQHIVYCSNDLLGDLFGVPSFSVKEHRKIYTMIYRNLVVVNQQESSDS

An IC50 of about 4 µM was found for Cc1occc1C(=O)N[C@@H](Cc1c[nH]c2ccccc12)C(=O)N1CCN(c2ccc([N+](=O)[O-])cc2)CC1 [Example 9, 2-Methyl-3-furoyl-Trp-piperazine-4-nitrophenyl] in this work.
